Measurements as given in US10335400B2, “Treatment of tauopathies with mGluR5 antagonists” (priority 2014, dated 2019).

Legend:
[1] = tested on: mixed primary neuronal culture; test: LDH release assay in mixed primary neuronal culture; assay type: cell-based, mouse; conditions: 1 mM BMAA, 24 h
Description: Mouse hippocampal neuronal cultures were prepared from d 18 embryos as previously described (1). Briefly, C57BL/6 pregnant female mice from Charles River Laboratories were killed by cervical dislocation. All studies were performed in accordance with the recommendations in the Guide for the Care and Use of Laboratory Animals of the National Institutes of Health (2). The protocol was approved by Institutional Animal Care and Use Committee of the New York Institute for Basic Research in Developmental Disabilities. All surgeries were performed under anesthesia, and all efforts were made to minimize suffering. Embryos were removed and placed in cold Hibernate A (BrainBits, LLC), and all the following steps were performed in ice-cold Hibernate A, under a stereoscopic (dissection) microscope placed in a laminar flow hood. Fetal brains were removed carefully, and forebrains were separated. The hippocampus, including the cortex surrounding the area of the hippocampus, was dissected and cut into small pieces using microsurgical scissors. […]

tau [2] = test: Tau phosphorylation (Western blots) in metabolically active rat brain slices; assay type: cell-based; conditions: 1 mM BMAA, 2-3 h, adult Wistar rat brain slices
Description: (§1) Male Wistar rats (Charles River Laboratories), 2-3 months old, were anesthetized by i.p. injection with 50 mg/kg Nembutal. The animals were decapitated when deeply anesthetized. The brains were removed immediately and cooled in ice-cold (4° C.) oxygenated artificial cerebrospinal fluid (aCSF) consisting of 126 mM NaCl, 3.5 mM KCl, 1.2 mM NaH2PO4, 1.3 mM MgCl2, 2 mM CaCl2, 11 mM D(+) glucose, and 25 mM NaHCO3 (pH 7.4) for 7-8 min. Each brain then was divided sagittally, and 400-μm-thick coronal slices were made with a Camden Vibraslicer (WP, Inc.). The slices were transferred into a chamber containing the oxygenated aCSF and were incubated at 33° C. for 2 h in the presence or absence of 1 mM, β-N ? methylamino-L-alanine (BMAA) dissolved in 10 mM NaHCO3 (Sigma). The oxygenation of the aCSF was carried out by bubbling the solution with a mixture of 95% O2 and 5% CO2 during the entire procedure. At the end of incubation, the brain slices were homogenized with homogenizing buffer [50 mM Tris·HCl (pH 7.4), 8.5% (wt/vol) sucrose, 2 mM EDTA, 2 mM EGTA, 10 mM (3-mercaptoethanol, 5 mM benzamidine, 0.5 mM 4-(2-Aminoethyl) benzenesulfonyl fluoride hydrochloride (AEBSF), 4 μg/mL pepstatin A, and 10 μg/mL each of aprotinin and leupepin] at a ratio of 9.0 mL buffer/1.0 g tissue slices. The homogenates were divided into two parts. One part was centrifuged at 16,000×g for 10 min, and the resulting supernatant was used to assay protein phosphatase 2A (PP2A) activity. Into the other half, an equal volume of phosphatase-inhibitor mixture (20 mM 3-glycerophosphate, 2 mM Na3VO4, and 100 mM NaF) was added immediately, and the samples were used for Western blots.
(§2) Protein was fractionated by 10% SDS/PAGE, transferred to PVDF membrane, and then blocked with 5% skim milk for 1 h at room temperature. The membrane was probed with anti-IPP2A (5G6, 1:1, 500) (7), anti-I2P2A (10E7, 1:1, 600) (7), anti-tau ˜92e; 1:5,000) (8), anti-tau (R134d; 1:5 000) (9), anti-tau pSer^262/^356 (12E8; 1:500) (10, anti-tau pSer^199, anti-tau pThr^205, anti-tau pThr^212, and pSer^396 (1:1,000) (Biosource), anti-GAPDH (1:2,000) (Santa Cruz Biotechnology), anti-PP2Ac (1:10 000) (BD Transduction Lab), anti pY^307-PP2A and anti-DML^309-PP2A (1:1,000) (Millipore), anti-GSK-3(α/β), anti-pS^9-GSK-3 β, anti-ERK1/2, anti-pT^202/Y^204-ERK1/2, anti-MEK1/2, anti-p9^17/221-MEK1/2, anti-CAMKII, anti-pT^286-CAMKII, anti-p70 S6 kinase, anti-pT^389-p70 S6 kinase, anti-SAPK/JNK, and anti-pT^183/Y^185-SAPK/JNK (1:1,000) (Cell Signaling Technology). The membrane then was incubated with HRP-conjugated secondary antibody (Jackson ImmunoResearch). The protein bands were detected with the enhanced chemiluminescence reagents (Thermo Scientific). Band intensity was measured by Multi-Gauge V3 software (Fuji Photo Film).

[3] = tested on: PP2A regulated protein kinases; test: Phosphorylated PP2A regulated protein kinases by Western blots in rat brain slices; assay type: cell-based; conditions: BMAA-treated rat brain slices (1 mM, 2 h)
Description: as §1, §2

tau [4] = test: i.c.v. infusion of BMAA in neonatal rats: hyperphosphorylation of tau; assay type: in vivo, rat; conditions: i.c.v. BMAA 1.3 μmol
Description: Wistar rats were bred and maintained under standard environmental conditions (12-h light/dark cycles, 22° C.) and were allowed free access to food and water. The animal experiments were carried out in strict compliance with protocols approved by the Animal Welfare Committee of New York State Institute for Basic Research in Developmental Disabilities. On postnatal d 2 (PND2), pups were individually cryo-anesthetized on ice, and 2 μL of 1.3 μmol BMAA in PBS was injected into lateral ventricle using a 10-μL Hamilton syringe (Hamilton Syringe Co.). Control animals were injected with PBS in an identical manner. After infusion of BMAA, rats were killed within 1, 24, 48, 72, or 96 h, and the brains were used for Western blots and PP2A activity assays.
as §2

mixed cortical cultures = conditions: injury induced by amyloid-β, 1-methyl-4-phenylpyridinium or methylmercury; cited from earlier work

CNC[C@H](N)C(=O)O [BMAA, β-N-methylamino-L-alanine]
cell death (LDH release) [1]: caused cell death
increase in phosphorylation of tau at Ser199 (tau [2]): 2.6 fold
increase in phosphorylation of tau at Ser262/356 (tau [2]): 3.4 fold
increase in phosphorylation of tau at Thr205 (tau [2]): 1.8 fold
increase in phosphorylation of tau at Thr212 (tau [2]): 3.7 fold
phosphorylation of tau at Ser396 (tau [2]): not any significant change
level of phosphorylated GSK-3β [3]: no significant changes
level of phosphorylated JNK [3]: no significant changes
level of phosphorylated p70 S6 kinase [3]: no significant changes
level of phosphorylated/activated CaMKII [3]: increased noticeably
level of phosphorylated/activated ERK1/2 [3]: increased noticeably
level of phosphorylated/activated MEK1/2 [3]: increased noticeably
time of peak hyperphosphorylation of tau at Ser262/356 (tau [4]): 24 to 48 h
time of peak hyperphosphorylation of tau at Thr212 (tau [4]): 24 to 48 h
time of peak phosphorylation of tau at Ser199 (tau [4]): 72 to 96 h
time of peak phosphorylation of tau at Ser396 (tau [4]): 72 to 96 h
time of peak phosphorylation of tau at Thr205 (tau [4]): 72 to 96 h
BMAA concentration potentiating neuronal injury (mixed cortical cultures): 10 µM
